Tests used:
[1] = Dark toxicity against porcine PLP2 cells assessed as growth inhibition after 24 hrs by SRB assay; details: Sus scrofa
[2] = Dark toxicity against human HeLa cells assessed as growth inhibition at 0.1 uM after 24 hrs by SRB assay relative to control; format: cell-based; details: read-out: GI
[3] = Dark toxicity against human NCI-H460 cells assessed as growth inhibition after 24 hrs by SRB assay; format: cell-based
[4] = Photocytotoxicity against porcine PLP2 cells assessed as growth inhibition preincubated for 24 hrs followed by irradiation with light at 23 to 24 uW/cm'2 for 30 mins measured after 24 hrs by SRB assay; details: Sus scrofa
[5] = Dark toxicity against human HeLa cells assessed as growth inhibition after 24 hrs by SRB assay; format: cell-based
[6] = system: MCF7; experiment: Photocytotoxicity against human MCF7 cells assessed as growth inhibition preincubated for 24 hrs followed by irradiation with light at 23 to 24 uW/cm'2 for 30 mins measured after 24 hrs by SRB assay; format: functional; details: MCF7, light or radiation study
[7] = Dark toxicity against human NCI-H460 cells assessed as growth inhibition at 0.1 uM after 24 hrs by SRB assay relative to control; format: cell-based; details: read-out: GI
[8] = Dark toxicity against human MCF7 cells assessed as growth inhibition after 24 hrs by SRB assay; format: cell-based
[9] = Dark toxicity against human MCF7 cells assessed as growth inhibition at 0.1 uM after 24 hrs by SRB assay relative to control; format: cell-based; details: read-out: GI
[10] = system: HepG2; experiment: Photocytotoxicity against human HepG2 cells assessed as growth inhibition preincubated for 24 hrs followed by irradiation with light at 23 to 24 uW/cm'2 for 30 mins measured after 24 hrs by SRB assay; format: functional; details: HepG2, light or radiation study
[11] = Dark toxicity against human HepG2 cells assessed as growth inhibition after 24 hrs by SRB assay; format: cell-based
[12] = Dark toxicity against human HepG2 cells assessed as growth inhibition at 0.1 uM after 24 hrs by SRB assay relative to control; format: cell-based; details: read-out: GI
[13] = Dark toxicity against porcine PLP2 cells assessed as growth inhibition at 0.1 uM after 24 hrs by SRB assay relative to control; details: Sus scrofa, read-out: GI
[14] = system: HeLa; experiment: Photocytotoxicity against human HeLa cells assessed as growth inhibition preincubated for 24 hrs followed by irradiation with light at 23 to 24 uW/cm'2 for 30 mins measured after 24 hrs by SRB assay; format: functional; details: light or radiation study
[15] = system: NCI-H460; experiment: Photocytotoxicity against human NCI-H460 cells assessed as growth inhibition preincubated for 24 hrs followed by irradiation with light at 23 to 24 uW/cm'2 for 30 mins measured after 24 hrs by SRB assay; format: functional; details: NCI-H460, light or radiation study

SMILES | GI50 at 24 h [1] | inhibition at 24 h, 0.1 µM [2] | GI50 at 24 h [3] | GI50 at 24 h [4] | GI50 at 24 h [5] | GI50 [6] | inhibition at 24 h, 0.1 µM [7] | GI50 at 24 h [8] | inhibition at 24 h, 0.1 µM [9] | GI50 [10] | GI50 at 24 h [11] | inhibition at 24 h, 0.1 µM [12] | inhibition at 24 h, 0.1 µM [13] | GI50 [14] | GI50 [15]
CCN1/C(=C/C2=C(N(C)CCO)C(=C/c3sc4ccccc4[n+]3CC)/C2=O)Sc2ccccc21 | 717 nM | < 20% | 767 nM | 471 nM | 2640 nM | 239 nM | < 20% | 737 nM | < 20% | 271 nM | 7540 nM | < 20% | < 20% | 273 nM | 455 nM
CCN1/C(=C/C2=C(N(CCO)CCO)C(=C/c3sc4ccccc4[n+]3CC)/C2=O)Sc2ccccc21 | 621 nM | < 20% | 940 nM | 340 nM | > 10000 nM | 257 nM | < 20% | 5340 nM | < 20% | 722 nM | 4490 nM | < 20% | < 20% | 88 nM | 404 nM
CCN1/C(=C/C2=C(N)C(=C/c3sc4ccccc4[n+]3CC)/C2=O)Sc2ccccc21 | > 10000 nM | < 20% | > 10000 nM | 4980 nM | > 10000 nM | 918 nM | < 20% | > 10000 nM | < 20% | 665 nM | 4570 nM | < 20% | < 20% | 288 nM | 8350 nM
CCN1/C(=C/C2=C(NCCO)C(=C/c3sc4ccccc4[n+]3CC)/C2=O)Sc2ccccc21 | 3730 nM | < 20% | 8820 nM | 385 nM | > 10000 nM | 224 nM | < 20% | 7360 nM | < 20% | 110 nM | 7830 nM | < 20% | < 20% | 97 nM | 440 nM
CCN1/C(=C/C2=C(NC)C(=C/c3sc4ccccc4[n+]3CC)/C2=O)Sc2ccccc21 | 410 nM | < 20% | 507 nM | 126 nM | 2220 nM | 54 nM | < 20% | 576 nM | < 20% | 78 nM | 7080 nM | < 20% | < 20% | 71 nM | 171 nM

Reference: ChEMBL document CHEMBL4043173, “Aminosquaraines as potential photodynamic agents: Synthesis and evaluation of in vitro cytotoxicity” (Bioorg Med Chem Lett, 2017)
